This note sets out measurements from patent US20050048508A1, “Trehalose receptor and method for detecting trehalose with the same” (KABUSHIKI KAISHA HAYASHIBARA SEIBUTSU KAGAKU KENKYUJO, priority 2002, published 2005).

SMILES strings stand for the structures.

The target in this test is T1, T1R2 and T1R3 with G protein α-subunits (α15 and α16/Z chimeric protein) (Mus musculus, UniProt Q925D8+Q925I4, E350G/G527D/I706N/P352R/R175Q).
T1 construct: expressed in transfected cells; host or cells: 293 cells, RCB 1637 (human embryonic kidney)
T1 sequence (Q925I4 20-843 R175Q/E350G/P352R/G527D): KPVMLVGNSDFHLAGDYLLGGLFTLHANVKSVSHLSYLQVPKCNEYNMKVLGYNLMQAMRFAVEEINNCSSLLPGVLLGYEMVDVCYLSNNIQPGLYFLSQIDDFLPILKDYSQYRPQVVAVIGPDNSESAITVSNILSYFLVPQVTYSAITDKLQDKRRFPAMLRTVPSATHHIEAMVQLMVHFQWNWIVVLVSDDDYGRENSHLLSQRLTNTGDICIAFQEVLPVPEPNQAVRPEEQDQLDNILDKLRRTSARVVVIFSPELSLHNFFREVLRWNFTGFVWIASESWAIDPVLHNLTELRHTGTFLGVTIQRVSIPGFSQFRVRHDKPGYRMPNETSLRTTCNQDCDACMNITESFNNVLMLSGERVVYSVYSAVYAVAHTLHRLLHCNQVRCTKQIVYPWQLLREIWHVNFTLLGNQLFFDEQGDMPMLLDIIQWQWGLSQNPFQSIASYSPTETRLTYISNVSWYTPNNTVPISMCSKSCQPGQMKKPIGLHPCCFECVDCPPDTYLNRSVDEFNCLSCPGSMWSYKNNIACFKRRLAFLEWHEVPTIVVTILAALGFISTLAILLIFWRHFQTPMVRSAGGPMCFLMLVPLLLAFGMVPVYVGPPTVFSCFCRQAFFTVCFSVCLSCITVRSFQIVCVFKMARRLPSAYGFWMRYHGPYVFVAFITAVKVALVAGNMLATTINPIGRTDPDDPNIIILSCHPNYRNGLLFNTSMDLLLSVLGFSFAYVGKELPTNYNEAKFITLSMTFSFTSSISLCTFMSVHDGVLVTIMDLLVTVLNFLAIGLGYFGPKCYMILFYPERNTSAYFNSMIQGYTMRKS
T1 sequence (Q925D8 21-858 I706N): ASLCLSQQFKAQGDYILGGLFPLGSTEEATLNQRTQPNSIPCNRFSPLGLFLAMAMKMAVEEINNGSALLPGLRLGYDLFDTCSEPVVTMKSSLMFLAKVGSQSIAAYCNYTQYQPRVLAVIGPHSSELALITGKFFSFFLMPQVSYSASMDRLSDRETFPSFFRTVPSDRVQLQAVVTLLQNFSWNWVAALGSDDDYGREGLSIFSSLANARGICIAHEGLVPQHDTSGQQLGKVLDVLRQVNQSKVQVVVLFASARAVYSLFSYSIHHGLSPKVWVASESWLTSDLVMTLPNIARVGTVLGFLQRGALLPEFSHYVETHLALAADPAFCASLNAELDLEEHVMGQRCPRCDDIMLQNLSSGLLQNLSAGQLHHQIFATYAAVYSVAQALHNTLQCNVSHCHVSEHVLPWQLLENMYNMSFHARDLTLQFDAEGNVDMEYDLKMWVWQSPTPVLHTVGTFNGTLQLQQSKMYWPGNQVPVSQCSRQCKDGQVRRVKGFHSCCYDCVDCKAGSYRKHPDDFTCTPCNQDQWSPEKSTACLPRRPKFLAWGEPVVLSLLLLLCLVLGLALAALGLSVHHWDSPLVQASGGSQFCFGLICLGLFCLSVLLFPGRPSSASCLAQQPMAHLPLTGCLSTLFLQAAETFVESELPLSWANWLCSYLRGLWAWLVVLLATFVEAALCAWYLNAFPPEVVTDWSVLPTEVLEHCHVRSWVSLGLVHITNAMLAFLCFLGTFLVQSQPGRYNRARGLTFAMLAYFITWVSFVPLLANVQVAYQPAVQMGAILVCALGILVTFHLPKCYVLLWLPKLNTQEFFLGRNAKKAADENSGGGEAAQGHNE
Briefly: Intracellular calcium ion assay, 293 cells coexpressing G protein α-subunits, T1R2 and T1R3. Particulars: 293 cells: T1R2 + T1R3 + G protein α-subunits, 0.67 ml of 1 M saccharide solution added to 2 ml cell suspension, FLUO-4 AM. The class given is cell-based. The procedure: The coexpression vector for the G protein α-subunit α15 and the G protein α16/Z chimeric protein (hereinafter designated as “G protein α-subunits”) obtained in Example 1-3 was gene transferred to 293 cells, RCB 1637, a human embryonic kidney cell line, available from the Riken Bioresource Center, Ibaraki, Japan, by conventional lipofection. The gene transferred cells were suspended in Dulbecco's Modified Eagle's Medium (D-MEM) supplemented with 1 mg/L of “PUROMYCIN”, a trade mane of puromycin commercialized by Edge Biosystems, MD, USA, and 10% (v/v) of fetal calf serum to give a cell density of 2×10^6 cells/ml and cultured in a plastic petri dish for cell culture. After 10 to 14 days of incubation, a puromycin-resistant cell colony was collected and confirmed its production of the G protein α-subunit proteins with an index of their mRNA level by conventional RT-PCR. Thus, a cell line capable of expressing the G protein α-subunit proteins was established. To the cells were gene transferred an expression vector for the sweet taste receptor protein T1R1, T1R2, or T1R3 in Example 2-2; or a coexpression vector for a pair of T1R1 and T1R2, T1R1 and T1R3, or T1R2 and T1R3 by conventional lipofection. The resulting cells were suspended in D-MEM supplemented with 1 mg/L of “PUROMYCIN”, 500 mg/L of “GENETICIN”, and 10% (v/v) of fetal calf serum and cultured in a plastic petri dish for cell culture. […]
The captioned reactivity test was conducted according to a conventional intracellular calcium ion assay: 293 Cells prepared in Example 3, capable of coexpressing the G protein α-subunits and the sweet taste receptor(s), were cultured in a plastic petri dish for cell culture until reaching its confluent phase. […] Two milliliters of the resultant cell suspension was injected into a glass cuvette, commercialized by Hitachi, Ltd., Tokyo, Japan, and analyzed on “HITACHI 650-40”, a fluorescence spectrophotometer commercialized by Hitachi, Ltd., Tokyo, Japan. […]
Background: Calcium flux is commonly read through the fluorescence of an indicator in the cells.

On to `OC[C@H]1O[C@H](O[C@H]2O[C@H](CO)[C@@H](O)[C@H](O)[C@H]2O)[C@H](O)[C@@H](O)[C@@H]1O` [Trehalose], for which the “Influx of calcium ion” value is recorded as “Positive”.
Consider `OC[C@H]1O[C@@](CO)(O[C@H]2O[C@H](CO)[C@@H](O)[C@H](O)[C@H]2O)[C@@H](O)[C@@H]1O` [Sucrose, reference compound], for which the “Influx of calcium ion” value was “Positive”. Moreover, the “Influx of calcium ion” value (listed as sucrose) is “detected”.
